Data from BindingDB's records for doi:10.1016/j.bmcl.2008.11.105 (Pfizer, 2009).

Biological target: T1, Protein kinase C zeta type (Homo sapiens, UniProt Q05513)
T1 sequence (Q05513 whole entry): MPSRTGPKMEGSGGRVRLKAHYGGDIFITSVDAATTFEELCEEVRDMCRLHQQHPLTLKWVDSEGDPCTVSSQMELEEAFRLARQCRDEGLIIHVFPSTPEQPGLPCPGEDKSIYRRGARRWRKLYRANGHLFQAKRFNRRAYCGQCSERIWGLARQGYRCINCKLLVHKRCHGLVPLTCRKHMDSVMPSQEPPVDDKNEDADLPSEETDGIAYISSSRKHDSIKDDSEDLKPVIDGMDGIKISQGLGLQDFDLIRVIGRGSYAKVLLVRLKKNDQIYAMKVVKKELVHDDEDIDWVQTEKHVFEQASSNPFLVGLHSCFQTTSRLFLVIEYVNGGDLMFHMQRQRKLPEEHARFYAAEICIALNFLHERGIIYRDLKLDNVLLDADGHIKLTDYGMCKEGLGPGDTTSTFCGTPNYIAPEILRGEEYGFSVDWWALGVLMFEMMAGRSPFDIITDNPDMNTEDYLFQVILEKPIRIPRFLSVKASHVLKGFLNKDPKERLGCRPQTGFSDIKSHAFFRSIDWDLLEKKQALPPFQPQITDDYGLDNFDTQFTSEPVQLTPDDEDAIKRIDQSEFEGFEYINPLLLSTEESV
Test: PKC Enzyme Assay
Conditions: pH 7.5; 23 °C
Experimental: Protein kinase C (PKC), zeta activity was measured by following the phosphorylation of a biotinylated peptide substrate in the presence of ATP using AlphaScreen technology (Perkin Elmer, Waltham, MA). The AlphaScreen assay format relies on bringing a streptavidin coated donor bead and an IgG-protein A acceptor bead into proximity through the interaction between biotinylated phosphorylated peptide and a phospho-specific antibody to the peptide. Upon excitation of the donor bead at 680 nm, excited state singlet oxygen is produced and diffuses to acceptor beads in close proximity (200 nm), activating a cascade of fluorophores resulting in emission between 520-620 nm. Kinase activity is quantified through the evaluation of this emission signal. Compounds are evaluated as potential inhibitors of the PKC kinase activity by measuring their effects on the phosphorylation of the peptide substrate. IC50 value determinations were made for potential inhibitors by testing compounds at 12 concentrations in three-fold serial dilutions with each concentration tested in triplicate. Reactions were carried out for 60 minutes at room temperature. Reactions were then quenched by addition of stop solution. […] Plates were then read on a Fusion reader after an overnight equilibrium at room temperature.

## CN1CCN(c2cccc3[nH]c(-c4n[nH]c5cc(-c6ccc7ncccc7c6)ccc45)nc23)CC1 [indazole-benzimidazole, 23]
  IC50: 6.84 µM

## CN1CCN(c2cccc3[nH]c(-c4n[nH]c5cc(-c6ccc7ccoc7c6)ccc45)nc23)CC1 [indazole-benzimidazole, 25]
  IC50: 3.02 µM
